The record followed here is US20260297129A1, “PEPTIDES AS SELECTIVE IL-23 RECEPTOR INHIBITORS” (SANOFI, priority 2023, published 2026).

Data set [1] is described as follows: Solubility of peptide compounds in buffer formulations (Table 5). Format: physicochemical. As to conditions: target 1 mg/ml. The procedure:
Prior to the solubility measurement of a peptide batch, its purity was determined through UHPLC/MS method A.
For solubility testing the target concentration was 1 mg pure compound/ml. Therefore, solutions from solid samples were prepared in a buffer system at a concentration of 1 mg/mL compound. The solid samples were obtained by drying down aliquots of a freshly prepared dimethyl sulfoxide stock solution using a THERMO SPEEDVAC vacuum centrifuge. The dry down time was 3 hours.
The following buffer systems were applied: • Solubility buffer system A) 50 mM HCl pH 1.2 • Solubility buffer system B) 50 mM phosphate buffer pH 6.5 • Solubility buffer system C) 50 mM phosphate buffer pH 7.4 • UHPLC-UV was performed using analytical method A after 2 hours of gentle agitation from the filtered (0.45 μm filter plates) solutions, which were obtained by 10 mins of centrifugation forced filtration at 1500 RCF (relative centrifugal acceleration).
The solubility was determined by the comparison of the UV peak area of 2 μL-injections of a buffered sample diluted 1:10 with a standard curve of a dimethyl sulfoxide reference sample of known concentration. The different extinction coefficients were taken into account for the calculation.

Data set [2] relates to IL-23 induced STAT3 signaling (IL-23 receptor) in HEK-Blue IL-23 cells. Nature of the data set: Inhibition of IL-23 induced STAT3 signaling in HEK-Blue IL-23 cells, SEAP reporter (Table 9). Type of data set: cell-based. The following applies: human IL23 0.25 ng/ml, overnight, read-out: Inhibition of IL-23 induced pSTAT3 (IC50 nM). An excerpt: HEK-Blue™ IL-23 cells (INVIVOGEN) are designed for the detection of bioactive human (hIL-23) and murine IL-23 (mIL-23) by monitoring the activation of the STAT3 pathway. Binding of IL-23 to its receptor on the surface of HEK-Blue™ IL-23 cells triggers a signaling cascade leading to the activation of STAT3 and the subsequent production of secreted embryonic alkaline phosphatase (SEAP). This can be readily assessed using QUANTI-Blue™ Solution, a SEAP detection reagent.
HEK-Blue™ IL-23 cells were cultured as described by INVIVOGEN.
On the first day of assay 10 μL of the HEK-BLUE IL23 cell suspension (final concentration: 10,000 cells/well) and 10 μl of serially diluted peptides solutions were dispensed into a 384-well assay plate. After pre-incubation of the reaction mixtures at 37° C./5% CO2/95% humidity for 60 minutes, 10 μl of the humanIL23 cytokine (final concentration: 0.25 ng/ml) was added to each well for the STAT3 signaling activation. The plate was incubated overnight at 37° C./5% CO2/95% humidity.
On the second day 20 μl per well of QUANTI-BLUE detection solution (prepared according to the manufacture instruction) was dispensed into a new 384-well plate and followed by the transfer of 5 μl supernatant of the overnight incubated cell/sample mixtures. After incubation of 45 min at room temperature signals were measured with PHERASTAR (BMG) at OD 620-655 nm.
Dose response data were fitted with XLfit.

The nature of data set [3]: Chemical stability (relative purity loss) of peptide compounds in buffer formulations (Table 6). Format: physicochemical. As to conditions: 2° C. and 37° C. The procedure:
Purity of a peptide batch was determined through UHPLC/MS method A prior to chemical stability measurement.
For stability assessment, the target concentration was 0.5 mg pure compound/ml. Therefore, solutions from solid samples were prepared in a buffer system at a concentration of 0.5 mg/mL compound. The solid samples were obtained by drying down aliquots of a freshly prepared acetonitrile stock solution using a THERMO SPEEDVAC vacuum centrifuge. The dry down time was 3 hours.
The following buffer systems were applied: • Solubility buffer system A): 50 mM HCl pH 1.2+Acetonitrile (3:1). • Solubility buffer system B): 50 mM phosphate buffer pH 6.5+Acetonitrile (3:1). • Solubility buffer system C): 50 mM phosphate buffer pH 7.4+Acetonitrile (3:1). • Prepared solutions were stored for 24 hours at 2° C. and 37° C.
After this time course, the samples were centrifuged for 15 min at 2500 RCF to create a 1:5 dilution of the supernatant. Then 2 μl of the dilution were analyzed with UHPLC-UV applying method A.
The chemical stability was rated through the relative loss of purity calculated by the equation: […]

[4] abbreviates: Buffer pH 1.1 (head; method: 50 mM HCl pH 1.2), 2 h agitation, read-out: Solubility, Buffer pH 1.1.
The mark [5] stands for this setting: aqueous buffer, 50 mM phosphate buffer pH 6.5, 2 h agitation, read-out: Solubility, Buffer pH 6.5.
Setting [6] is: aqueous buffer, 50 mM phosphate buffer pH 7.4, 2 h agitation, read-out: Solubility, Buffer pH 7.4.

Values after ≈ are worked out from the molar mass of the structure shown. Read-outs that look alike come from different tables or passages of the source. Numbered stars: 1 amine (or outer) side, 2 acyl side, 3 side chain; on linkers, the order of the positions; unused ones are H or OH. Bridge positions count the residues as written; N and C are the ends. Square brackets hold non-standard residues; d marks the D form. Peptide text beside a SMILES is read from it. * marks the point of attachment. Lys(Me,(CH2)4NMe(CH2)5CO) = CN(CCCCCC(=O)[*:3])CCCCN(C)CCCC[C@H](N[*:1])C(=O)[*:2]; Lys(Me,(CH2)4NMe(CH2)4CO) = CN(CCCCC(=O)[*:3])CCCCN(C)CCCC[C@H](N[*:1])C(=O)[*:2]; Trp(7-Me) = Cc1cccc2c(C[C@H](N)C(=O)O)c[nH]c12; Trp(1-Me) = Cn1cc(C[C@H](N)C(=O)O)c2ccccc21; NH(2-(3-pyridyl)ethyl) = c1cncc(CCN*)c1; αMeLys(Me2) = CN(C)CCCC[C@](C)(N)C(=O)O; 2Nal = N[C@@H](Cc1ccc2ccccc2c1)C(=O)O; 3Pal = N[C@@H](Cc1cccnc1)C(=O)O; Thp = NC1(C(=O)O)CCOCC1; Me2NCH2CH2 = CN(C)CC*; Aib = CC(C)(N)C(=O)O; Sar = CNCC(=O)O

For `CC(=O)NCCCC[C@@H]1NC(=O)[C@H](Cc2c[nH]c3c(C)cccc23)NC(=O)CCCCN(C)CCCCN(C)CCCC[C@@H](C(=O)N[C@@H](CO)C(=O)N[C@@H](Cc2cccnc2)C(=O)N(C)CC(N)=O)NC(=O)[C@](C)(CCCCN(C)C)NC(=O)[C@H](Cc2ccc3ccccc3c2)NC(=O)[C@H](Cc2ccc(OCCN(C)C)cc2)NC(=O)C2(CCOCC2)NC1=O` [compound 44] ([Trp(7-Me)]K(Ac)[Thp]Y(Me2NCH2CH2)[2Nal][αMeLys(Me2)][Lys(Me,(CH2)4NMe(CH2)4CO)]S[3Pal][Sar]-NH2; lactam N-7), the solubility – broadly, how much of the substance goes into solution per volume – at 2 h was not below 1360 µg/mL in data set [1] (setting [4]), not below 1130 µg/mL in data set [1] (setting [5]) and not below 1120 µg/mL in data set [1] (setting [6]). The IC50 (as a rule, the concentration needed to halve the response being measured) in data set [2] came to 1.19 nM.

With `CN(C)CCCC[C@]1(C)NC(=O)[C@H](Cc2ccc3ccccc3c2)NC(=O)[C@H](Cc2ccc(OCCN(C)C)cc2)NC(=O)C2(CCOCC2)NC(=O)[C@H](CCC(N)=O)NC(=O)[C@H](Cc2cn(C)c3ccccc23)NC(=O)CCCCN(C)CCCCN(C)CCCC[C@@H](C(=O)N[C@@H](CO)C(=O)N[C@@H](Cc2cccnc2)C(=O)N(C)CC(N)=O)NC1=O` [compound 45] ([Trp(1-Me)]Q[Thp]Y(Me2NCH2CH2)[2Nal][αMeLys(Me2)][Lys(Me,(CH2)4NMe(CH2)4CO)]S[3Pal][Sar]-NH2; lactam N-7), the solubility at 2 h in data set [1] (setting [4]) was not below 1060 µg/mL; in data set [1] (setting [5]), not below 1030 µg/mL; in data set [1] (setting [6]), not below 1030 µg/mL. Moreover, in data set [2], the IC50 was determined as 7.83 nM.

As for `CN(C)CCOc1ccc(C[C@@H]2NC(=O)C3(CCOCC3)NC(=O)[C@H](CCC(N)=O)NC(=O)[C@H](Cc3cn(C)c4ccccc34)NC(=O)CCCCCN(C)CCCCN(C)CCCC[C@@H](C(=O)NCC(=O)NCCc3cccnc3)NC(=O)C(C)(C)NC(=O)[C@H](Cc3ccc4ccccc4c3)NC2=O)cc1` [compound 22] ([Trp(1-Me)]Q[Thp]Y(Me2NCH2CH2)[2Nal][Aib][Lys(Me,(CH2)4NMe(CH2)5CO)]G-{NH(2-(3-pyridyl)ethyl)}; lactam N-7), the solubility at 2 h in data set [1] (setting [4]) was not below 1020 µg/mL; in data set [1] (setting [5]) it was not below 920 µg/mL; in data set [1] (setting [6]), 330 µg/mL (≈ 224 µM). Further, in data set [2], the IC50 stood at 24.8 nM.

Turning to `CC(=O)NCCCC[C@@H]1NC(=O)[C@H](Cc2cn(C)c3ccccc23)NC(=O)CCCCCN(C)CCCCN(C)CCCC[C@@H](C(=O)NCC(=O)NCCc2cccnc2)NC(=O)C(C)(C)NC(=O)[C@H](Cc2ccc3ccccc3c2)NC(=O)[C@H](Cc2ccc(OCCN(C)C)cc2)NC(=O)C2(CCOCC2)NC1=O` [compound 23] ([Trp(1-Me)]K(Ac)[Thp]Y(Me2NCH2CH2)[2Nal][Aib][Lys(Me,(CH2)4NMe(CH2)5CO)]G-{NH(2-(3-pyridyl)ethyl)}; lactam N-7), the solubility at 2 h in data set [1] (setting [4]) was not below 970 µg/mL; in data set [1] (setting [5]) it was not below 890 µg/mL; in data set [1] (setting [6]), not below 880 µg/mL. Besides, in data set [2], the half-maximal inhibitory concentration (IC50) was determined as 39.2 nM.

Turning to `CC(=O)NCCCC[C@@H]1NC(=O)[C@H](Cc2c[nH]c3c(C)cccc23)NC(=O)CCCCN(C)CCCCN(C)CCCC[C@@H](C(=O)NCC(=O)NCCc2cccnc2)NC(=O)C2(CCOCC2)NC(=O)[C@H](Cc2ccc3ccccc3c2)NC(=O)[C@H](Cc2ccc(OCCN(C)C)cc2)NC(=O)C2(CCOCC2)NC1=O` [compound 48] ([Trp(7-Me)]K(Ac)[Thp]Y(Me2NCH2CH2)[2Nal][Thp][Lys(Me,(CH2)4NMe(CH2)4CO)]G-{NH(2-(3-pyridyl)ethyl)}; lactam N-7), the solubility at 2 h in data set [1] (setting [4]) is not below 980 µg/mL; in data set [1] (setting [5]), 850 µg/mL (≈ 550 µM); in data set [1] (setting [6]), 810 µg/mL (≈ 524 µM). Also, in data set [2], the IC50 worked out at 10.4 nM.

As to `CC(=O)NCCCC[C@@H]1NC(=O)[C@H](Cc2c[nH]c3c(C)cccc23)NC(=O)CCCCN(C)CCCCN(C)CCCC[C@@H](C(=O)N[C@@H](CO)C(=O)N[C@@H](Cc2cccnc2)C(=O)N(C)CC(N)=O)NC(=O)C(C)(C)NC(=O)[C@H](Cc2ccc3ccccc3c2)NC(=O)[C@H](Cc2ccc(OCCN(C)C)cc2)NC(=O)C2(CCOCC2)NC1=O` [compound 39] ([Trp(7-Me)]K(Ac)[Thp]Y(Me2NCH2CH2)[2Nal][Aib][Lys(Me,(CH2)4NMe(CH2)4CO)]S[3Pal][Sar]-NH2; lactam N-7), the degraded at 24 h is 0% in data set [3] (50 mM phosphate buffer pH 6.5 + acetonitrile (3:1), read-out: Chemical stability (relative purity loss), Buffer pH 6.5); 0% in data set [3] (50 mM phosphate buffer pH 7.4 + acetonitrile (3:1), read-out: Chemical stability (relative purity loss), Buffer pH 7.4); 3.7% in data set [3] (50 mm hcl + acetonitrile, Buffer pH 1.1 (head; method: 50 mM HCl pH 1.2 + acetonitrile 3:1), read-out: Chemical stability (relative purity loss), Buffer pH 1.1). Besides, the results for the solubility at 2 h in data set [1] (setting [4]), in data set [1] (setting [5]) and in data set [1] (setting [6]) were not below 1000 µg/mL, not below 890 µg/mL and 850 µg/mL (≈ 516 µM), respectively. Further, in data set [2], the IC50 worked out at 1.78 nM.
